Measured values taken from US20230382869A1, “Phenyl-3,4-dihydroisoquinolin-2(1h)-yl-ethan-1-one derivatives as dopamine d1receptor positive allosteric modulators” (Eli Lilly and Company, priority 2020, published 2023).
Like-named read-outs stand apart in the source and are kept apart here.

Columns and labels:
[1] = Plasma and Brain Levels after oral dosing; format: in vivo, mouse; settings: for Kp uu at 1 h: ratio Cu,brain vs Cu,plasma
Procedure: Example 7, 2-(2-chloro-6-fluoro-phenyl)-1-[(1S,3R)-6-fluoro-3-(hydroxymethyl)-5-(3-hydroxy-3-methyl-butyl)-1-methyl-3,4-dihydro-1H-isoquinolin-2-yl]ethenone, was orally dosed to male mouse from 3 mg/kg to 60 mg/kg in fed condition, and the plasma and brain concentration was determined 1 hr post-dose. The fraction unbound of the compound was determined in vitro as described previously (Zamek-Gliszczynski M J, et al., Validation of 96-well equilibrium dialysis with non-radiolabeled drug for definitive measurement of protein binding and application to clinical development of highly-bound drugs, J. Pharm. Sci. (2011) 100: 2498-2507). The ratio (Kpuu) of unbound brain concentration (Cu, brain) vs. unbound plasma concertation (Cu, plasma) was determined as described previously (Raub T J, et al., Brain Exposure of Two Selective Dual CDK4 and CDK6 Inhibitors and the Antitumor Activity of CDK4 and CDK6 Inhibition in Combination with Temozolomide in an Intracranial Glioblastoma Xenograft. Drug Metab. Dispos. (2015) 43:1360-71). The data presented below in Table 3 for Example 7 are averages from 3 animals at each dose. “Con.” refers to concentration.

[2] = Fraction escaping first-pass gut metabolism (FG); set-up: species or system human; settings: calculated
From the text: The estimation of fraction metabolized in the gut may be determined using the following equation found in Yang J, et al. (2007) Prediction of intestinal first-pass drug metabolism. Curr Drug Metab 8:676-684:
FG=Qgut/(Qgut+fugut×Clint CYP3A,gut)
Qgut=Qvilli×Clperm/(Qvilli+Clperm)
Clperm═Papp×Intestinal surface area
Clint,CYP3A,gut=CLint,CYP3A,liver/fumic×microsomal protein in gut (mg)×0.4 (in house calculation) Where Qgut is a hybrid flow term dependent upon the villous blood flow and permeability of the compound fugut is the fraction of drug unbound in the enterocyte
Qvilli is villous blood flow
Clperm is the clearance term defining permeability through the enterocyte
Papp is the passive permeability measured in MDCKII cell line in house fumic is the fraction of drug unbound in human liver microsomes
Human intestine parameters are from Yang et al., 2007, and Gertz M, et al. (2010) Prediction of human intestinal first-pass metabolism of 25 CYP3A substrates from in vitro clearance and permeability data. Drug Metab Dispos 38:1147-1158.

[3] = Renal and biliary excretion in bile-duct cannulated dogs; format: in vivo, dog
Procedure: The renal and biliary excretion of test compounds is tested in bile-duct cannulated dogs essentially according to Burkey J L, et al. (2002) Disposition of LY333531, a selective protein kinase C beta inhibitor, in the Fischer 344 rat and beagle dog. Xenobiotica 32:1045-1052. The compound of Example 7 is tested essentially as described and its renal and biliary excretion is found to be negligible. The fraction of compound cleared through CYP3A4 metabolism is calculated using the equation below: […]

`C[C@H]1c2ccc(F)c(CCC(C)(C)O)c2C[C@H](CO)N1C(=O)Cc1c(F)cccc1Cl` [Example 7, 2-(2-chloro-6-fluoro-phenyl)-1-[(1S,3R)-6-fluoro-3-(hydroxymethyl)-5-(3-hydroxy-3-methyl-butyl)-1-methyl-3,4-dihydro-1H-isoquinolin-2-yl]ethanone] gave a concentration at 1 h ([1]; brain, 3 mg/kg oral, 1 hr post-dose, male mouse, fed, read-out: Brain con.) of 18 nM, a concentration at 1 h ([1]; brain, 6 mg/kg oral, 1 hr post-dose, male mouse, fed, read-out: Brain con.) of 45.1 nM and a concentration at 1 h ([1]; brain, 10 mg/kg oral, 1 hr post-dose, male mouse, fed, read-out: Brain con.) of 84.9 nM. For the same molecule, the concentration at 1 h ([1]; brain, 30 mg/kg oral, 1 hr post-dose, male mouse, fed, read-out: Brain con.) was 557 nM, the concentration at 1 h ([1]; brain, 60 mg/kg oral, 1 hr post-dose, male mouse, fed, read-out: Brain con.) was 1290 nM and the Kp uu at 1 h ([1]; male, mouse, 3 mg/kg oral, 1 hr) was 0.126. The Kp uu at 1 h ([1]; male, mouse, 6 mg/kg oral, 1 hr) was 0.143, the Kp uu at 1 h ([1]; male, mouse, 10 mg/kg oral, 1 hr) was 0.122 and the Kp uu at 1 h ([1]; male, mouse, 30 mg/kg oral, 1 hr) was 0.194. The Kp uu at 1 h ([1]; male, mouse, 60 mg/kg oral, 1 hr) was 0.248, the concentration at 1 h ([1]; male, mouse, unbound brain concentration, 3 mg/kg oral, 1 hr, read-out: Cu, brain) was 0.448 nM and the concentration at 1 h ([1]; male, mouse, unbound brain concentration, 6 mg/kg oral, 1 hr, read-out: Cu, brain) was 1.12 nM. It also gave a concentration at 1 h ([1]; male, mouse, unbound brain concentration, 10 mg/kg oral, 1 hr, read-out: Cu, brain) of 2.11 nM, a concentration at 1 h ([1]; male, mouse, unbound brain concentration, 30 mg/kg oral, 1 hr, read-out: Cu, brain) of 13.9 nM and a concentration at 1 h ([1]; male, mouse, unbound brain concentration, 60 mg/kg oral, 1 hr, read-out: Cu, brain) of 32.1 nM. The concentration at 1 h ([1]; male, mouse, unbound plasma concentration, 3 mg/kg oral, 1 hr, read-out: Cu, plasma) was 4.97 nM, the concentration at 1 h ([1]; male, mouse, unbound plasma concentration, 6 mg/kg oral, 1 hr, read-out: Cu, plasma) was 9.62 nM and the concentration at 1 h ([1]; male, mouse, unbound plasma concentration, 10 mg/kg oral, 1 hr, read-out: Cu, plasma) was 17.1 nM. The concentration at 1 h ([1]; male, mouse, unbound plasma concentration, 30 mg/kg oral, 1 hr, read-out: Cu, plasma) was 70.1 nM, the concentration at 1 h ([1]; male, mouse, unbound plasma concentration, 60 mg/kg oral, 1 hr, read-out: Cu, plasma) was 128 nM and the concentration at 1 h ([1]; plasma, 3 mg/kg oral, 1 hr post-dose, male mouse, fed, read-out: Plasma con.) was 353 nM. The concentration at 1 h ([1]; plasma, 6 mg/kg oral, 1 hr post-dose, male mouse, fed, read-out: Plasma con.) was 682 nM, the concentration at 1 h ([1]; plasma, 10 mg/kg oral, 1 hr post-dose, male mouse, fed, read-out: Plasma con.) was 1210 nM and the concentration at 1 h ([1]; plasma, 30 mg/kg oral, 1 hr post-dose, male mouse, fed, read-out: Plasma con.) was 4980 nM. The concentration at 1 h ([1]; plasma, 60 mg/kg oral, 1 hr post-dose, male mouse, fed, read-out: Plasma con.) was 9080 nM, the FG [2] was 0.78 and the “renal and biliary excretion” value [3] was “negligible”.
